Source: patent US8759331B2, “X-ray and gamma-photon activable organic compounds, their preparation and their uses” (Centre National de la Recherche Scientifique, priority 2010, dated 2014)
“Also recorded” adds a separate entry of the source.

Assays:
[1] = photolysis under one-photon (UV) irradiation at 366 nm, followed by HPLC/LC-MS; assay type: physicochemical; settings: 366 nm UV irradiation, physiological conditions / aqueous buffer pH 7
Experimental: The photochemical efficiency of any chromophores is determined by the extinction coefficient (ε) and the quantum yield (Qu) that is characteristic of the observed photochemical event of the chromophore. The product of these quantities (εQu) characterizes the efficiency of the event such as fluorescence or chemical transformation, for example by the incident light.
The photolysis at 366 nm of compound 5 was monitored by the disappearance of the caged hydrocinnamate 5 and by the appearance of the compounds 6 and 7, by using liquid chromatography (LC) or liquid-chromatography-mass spectrometry (LC-MS) techniques. […] In contrast, compound 4 was inert under UV irradiation at 366 nm.
Samples were prepared in c=0.1 mM concentration in aqueous TRIS buffer (pH=7). An aliquot (1 mL) of this solution was irradiated at 366 nm (ε366=3000 M^−1·cm^−1) in a 1 mL quartz cuvette. The evolution of the photolysis was followed by HPLC using C-18 reverse phase chromatography (XTerra, eluents: methanol/HCO2H (0.1% aq), H2O/HCO2H (0.1% aq) detection at 260 and 320 nm).

[2] = radiolysis under X-ray irradiation (17.5 keV), followed by HPLC; assay type: physicochemical; settings: soft X-ray irradiation 17.5 keV
Experimental: The radiolysis was followed either by the diminution of the caged compound 5, or by the increasing of the photo-products 6 and 7. […] The photo-fragmentation follows a first order kinetic with a time constant of 4.7×10^−3 min^−1.
The evolution of the radiolysis was followed by HPLC using C-18 reverse phase chromatography (XTerra, eluents: methanol/HCO2H (0.1% aq), H2O/HCO2H (0.1% aq) detection at 260 and 320 nm).

| SMILES | photolysis under near UV irradiation (366 nm) [1] | photo-fragmentation under X-ray irradiation [2] |
| --- | --- | --- |
| CC(C)(C)OC(=O)N1CCN(c2ccc3ccc(COC(=O)CCc4ccccc4)nc3c2)CC1 [compound 3] | prone to photolysis | no detectable photo-fragmentation; also recorded: no traces of photo-fragmentation |
| O=C(CCc1ccccc1)OCc1ccc2ccc(N3CCNCC3)cc2n1 [compound 4] | inert | no detectable photo-fragmentation; also recorded: no traces of photo-fragmentation |
